The text below walks through data of patent US8119170B2, “Herbal compositions and methods for enhancing vital energy and athletic performance” (priority 2008, dated 2012).

SMILES strings stand for the structures.

The test system of assay [1] is L6 rat skeletal cells. As to the kind of experiment: MTT assay, viability of L6 cells under hypoxic conditions. The assay is classed as cell-based. The note with it: 80 μg/ml, 12 h pretreatment, 1 h hypoxia; vehicle 27% ± 1.3%; means ± SD. (In general: Formazan colour is commonly taken as a measure of viable cells.)
Experimental: L6 cells were cultured in 96-well tissue culture plates (1×10^4 cell/well) with 10% FBS for 24 hours. Serum-free medium was then used for another 24 hours prior to treatment with RGC, Rhodiola crenulata extract, or Ginkgo biloba extract. Cell viability and proliferation were measured by the 3-(4,5-dimethylthiazol-2-yl)-2,5-diphenyltetrazolium bromide (MTT) and 5-bromo-2′-deoxyuridine (BrdU) (Roche Diagnostics, USA) incorporation assays, respectively.
The L6 cells were plated in 96-well plates (5000 cell/well) for 24 hours. Then the serum-free medium was used and cells incubated for another 12 hours. Sequentially, cells were pretreated with various concentrations (20 μg/ml, 40 μg/ml, 80 μg/ml) of RG, Rhodiola Crenulata, or Ginkgo biloba, respectively, or Vitamin C (80 μg/ml) for 12 hours, followed by exposure to an ischemic solution (EBSS) and placed in an anaerobic chamber (Diagnostic System) for 1 hour. The control cells were incubated without treatment for 1 hour. After 1 hour exposure to hypoxic and ischemic environments, 100 μl MTT (0.5 mg/ml in PBS) was added to each well and the cells were incubated at 37° C. for 4 h. The MTT solution was prepared by dissolving 250 mg of MTT in 50 ml PBS (0.01 mol/L, PH7.4) to prepare 0.5% MTT staining solution. The solution was then filtered through Millipore membrane and stored at 4° C. […]
The subject of assay [2] is L6 rat skeletal cells. As to the kind of experiment: SOD antioxidant assay, SOD activity of L6 cells under hypoxic conditions. The format is cell-based. The note with it: 80 μg/ml, hypoxic condition; vehicle 16.58% ± 0.31%; means ± SD.
Experimental: Cells were homogenized in ice-cold phosphate buffer (50 mmol/L, pH 7.4) to make 10% w/v homogenate with a motor-driven Potter-Elvejhem glass homogenizer at 0-4° C. The homogenate will be then centrifuged at 300 g for 10 min at 4° C. to remove intact cells and debris. The remaining supernatant was divided into 2 parts for different enzyme assays. For SOD assays, the supernatant will be centrifuged at 2300 g for a further 10 min at 4° C. After centrifugation, the pellets will be discarded and the supernatants were used for the assessment of enzyme activity. The procedure was carried out on ice or at 0-4° C. Reagents for the assay were obtained through a commercially available SOD Assay Kit.
The samples were mixed and placed in a water bath at 37° C. for 40 min. A chromogenic agent (200 μl) was then added, the samples mixed, then left at room temperature for 10 min before absorbance at 550 nm was detected. The Inhibition ration was then calculated using the formula: Inhibition ratio=(ODn−OD1)/OD1×100%. […] The protein concentration was measured using the BCA protein quantitative assay.
After 10 μl was selected for use for the SOD assays, SOD activity assays were performed for the samples of the various treatment groups (20 μg/ml, 40 μg/ml, or 80 μg/ml of RG, Rhodiola Crenulata, or Ginkgo biloba, respectively, and 80 μg/ml of Vitamin C) where the sample volumes were as shown in Table 10. […]

As for `O=C1O[C@H]([C@@H](O)CO)C(O)=C1O` [Vitamin C], the “Cell proliferation in hypoxic conditions (cell survival rate, MTT)” value in assay [1] is recorded as 41% ± 3.2%. Further, in assay [2], the “SOD Enzymatic Activity” value is recorded as 20.00% ± 0.08%.
